Assay results as given in publication PMC4490784, “Compensatory induction of MYC expression by sustained CDK9 inhibition via a BRD4-dependent mechanism” (eLife, 2015).

Tested on: MYC protein in HeLa cells
Assay: Immunoblotting of MYC protein in HeLa cell lysates
Format: cell-based, human
Details: for effect on MYC induction by i-CDK9: pretreatment before i-CDK9
Experimental: Figure 3. Induction of MYC mRNA production in response to sustained inhibition of CDK9 by i-CDK9 and the requirement of MYC's natural genomic structure in this process. (A) The indicated tumor cell lines were treated with i-CDK9 (0.5 μM) for 2–16 hr and the MYC mRNA levels, which were divided by those in the DMSO-treated cells and averaged from three independent replicates of DNA microarray analysis, were shown as log2 values. (B) HeLa cells were treated with the indicated concentrations of i-CDK9 for 8 hr and the various proteins in the total cell lysates were detected by immunoblotting as indicated. Quantifications of the levels of MYC protein and Ser2-phosphoryalted Pol II (pSer2) in the lysates were shown above and below the immunoblots, respectively. […] The levels of the indicated proteins were examined by immunoblotting. (G) A HeLa-based cell line containing the stably transfected, doxycycline (Dox)-inducible MYC-F-expressing plasmid driven by the CMV promoter was pretreated with (+) or without (−) Dox prior to incubation with i-CDK9 or DMSO. MYC and MYC-F expressed from the endogenous MYC locus and the transfected plasmid, respectively, were detected by immunoblotting. DOI: http://dx.doi.org/10.7554/eLife.06535.007 Figure 3—figure supplement 1. Biphasic response of MYC mRNA production throughout the course of CDK9 inhibition by i-CDK9. DOI: http://dx.doi.org/10.7554/eLife.06535.008 [drawing 2] Figure 3—Figure supplement 2. […] DOI: http://dx.doi.org/10.7554/eLife.06535.009 [drawing 3] TEXT PRINTED IN THE PICTURE: (B) i-CDK9: Fold increase in MYC protein: 1.0 (i-CDK9 (μM): 0); Fold increase in MYC protein: 1.2 (i-CDK9 (μM): 0.01); Fold increase in MYC protein: 1.7 (i-CDK9 (μM): 0.03); Fold increase in MYC protein: 3.6 (i-CDK9 (μM): 0.1); Fold increase in MYC protein: 5.2 (i-CDK9 (μM): 0.3); Fold increase in MYC protein: 5.5 (i-CDK9 (μM): 1.0) | (C) i-CDK9: Fold increase in MYC protein: 1.0 (0.3 μM i-CDK9 (h): 0); Fold increase in MYC protein: 0.9 (0.3 μM i-CDK9 (h): 1); Fold increase in MYC protein: 1.1 (0.3 μM i-CDK9 (h): 2); Fold increase in MYC protein: 1.2 (0.3 μM i-CDK9 (h): 4); Fold increase in MYC protein: 3.3 (0.3 μM i-CDK9 (h): 8)
First, the induction of MYC protein level was confirmed in HeLa cells treated with i-CDK9. […] It took 1.0 µM i-CDK9 to cause up to 85% reduction in pSer2. In a separate time-course analysis, the 8-hr incubation with i-CDK9 (0.3 μM) induced the MYC level by 3.3-fold, whereas the same condition reduced the pSer2 level by only 40% (Figure 3C). Thus, MYC expression was highly responsive to i-CDK9 treatment and occurred at a time point earlier and drug concentration lower than those required to achieve a significant suppression of Ser2 phosphorylation on the Pol II CTD.

Structure (SMILES) | MYC protein level (e.g. 4 hr, e.g. 0.1 μM) | effect on MYC induction by i-CDK9
CN1CC[C@H](c2c(O)cc(O)c3c(=O)cc(-c4ccccc4Cl)oc23)[C@H](O)C1 [Flavopiridol, flavopiridol, reference compound] | significantly elevated | 
Cc1sc2c(c1C)C(c1ccc(Cl)cc1)=N[C@H](CC(=O)OC(C)(C)C)c1nnc(C)n1-2 [ctl., reference compound] |  | ineffective
Cc1sc2c(c1C)C(c1ccc(Cl)cc1)=N[C@@H](CC(=O)OC(C)(C)C)c1nnc(C)n1-2 [JQ1, reference compound] |  | completely abolished
